In article PMC12973313 (Chemical Science, 2026):
Converted amounts (≈) assume the structure as drawn. “And” between values parts separate entries of the source, which are not always exact repeats. Equal values may be shown once. Read-outs that look alike come from different tables or passages of the source.

Key:
S. aureus 1199B = assay: microbe, parasite or virus in culture; assay type: cell-based, Staphylococcus aureus; conditions: for MIC: Staphylococcus aureus, 1199B; for MIC (mM) S. aureus 1199B: lowest concentration with no visible growth; for MIC 1199B: total molecular concentration
Experimental: Next generation SSAs 3, 5, 7, and 9 were specifically designed to increase the activity of SSAs against both drug susceptible and resistant S. aureus and ovarian cancer cells. […] These strains include: (i) USA300, a common clinically relevant, methicillin resistant strain;[47] […]
(§1) Section S3: Biological methods […]
Preparation of bacterial plates : Sterile TSB agar plates were streaked using the desired […]
(§2) Preparation of inoculum: An initial culture was made up by inoculating TSB (5 mL) with 3 single colonies of the desired bacteria under sterile conditions and incubated at 37 °C overnight. The optical density at 600 nm (OD 600) was adjusted using sterile distilled H 2O (dH2O) to equal ~1 x 10^6 bacteria/mL.
(§3) Preparation of 96 -well microplate : A solution of each compound in H2O/5 % EtOH was made […]
The compound solution (200 […]
µL) was added to and diluted 50:50 down the plate. The bacterial suspension (100 µL) was dispensed into each well under sterile conditions. […]

E. Faecalis NCTC 775 = assay: MIC assay; assay type: cell-based, Enterococcus faecalis; conditions: for MIC: Enterococcus faecalis, NCTC775, lowest concentration with no visible growth
Experimental: as §1
Preparation of bacterial plates : Sterile TSB agar plates were streaked using the desired bacteria [Staphylococcus aureus (9144, 13616, USA 300 and 1199B ), Enterococcus faecalis (NCTC 775 and 12201 ) and Enterococcus faecium (NCTC 12204)] and incubated at 37 °C […]
as §2, §3
. The compound solution (200
[…]. The bacterial suspension (100 µL) was dispensed into each well under sterile conditions. The plates were sealed using parafilm and incubated at 37 °C for 20 hours, after which the OD 600 was measured.

[1] = 1H NMR titration, host:guest association; conditions: 1:1 binding isotherm, DMSO-d6 0.5% H2O, 298 K, guest as TBA salt
Description: Here H2PO4^- was used to model the phosphate present in the phospholipid headgroup, while Cl^- was incorporated into these studies as a common biologically relevant anion. […] Summary […] using Bindfit v0.5,1 conducted in DMSO-d6/0.5 % H2O at 298 K. Anionic guest species were supplied as the TBA salt. Data was fitted to both 1:1, 1:2 and 2:1 binding isotherm. […] 94

[2] = Dynamic light scattering, H2O 5% EtOH; assay type: physicochemical; conditions: 5.56 mM, 298 K, after annealing
Description: The size and stability of those self-associated structures present were confirmed through a combination of dynamic light scattering (DLS) and zeta potential measurements respectively (Table 2). […] Therefore, the presence of the alkyl/aromatic R-groups within the amino acid appended SSA are confirmed to increase higher order self-associated aggregate stability.
Table S9 - The peak maxima and polydispersity indices obtained for 1, 3, 5, 7, 9, and 1:1 enantiomeric mixtures of 3 + 5 and 7 + 9 obtained at 5.56 mM in H2O/5 % EtOH. An annealing process was applied in which the samples were heated to approximately 313 K before being cooled down to a measurement temperature of 298 K. The errors given are the standard error of the average.
Compound Repeat Peak maxima (nm) Polydispersity index

[3] = Cl-/NO3- antiport assay, chloride ISE; assay type: biochemical; conditions: pH 7.2; for EC50 Cl-/NO3- antiport: 50% chloride efflux after 270 s; for n (Hill coefficient): Hill analysis
Description: Although evidence supports the hypothesis that SSAs are able to act as selective phospholipid membrane coordination and/or disruption agents,[39] to date we have minimal evidence that verifies the role ion transport events may play in the SSA mechanism of biological activity, or the types of transmembrane SSA structures which may be involved in facilitating these events, such as ion channels or membrane pores. Therefore, to confirm the role ion transport may play in the biological activity of SSAs, we explored the ability of SSAs 1, 3, 5, 7, and 9 to mediate ion transport in phospholipid vesicles (Section S17). We initially performed a Cl^−/NO3^− antiport assay.[52] Large unilamellar vesicles composed of 1-palmitoyl-2-oleoyl-sn-glycero-3-phosphocholine (POPC) were prepared containing NaCl (ionic strength = 500 mM) buffered to pH 7.2 with sodium phosphate salts. The vesicles were suspended in NaNO3 (ionic strength = 500 mM) at pH 7.2 (Fig. 4a). On addition of the SSA as a 5 mM DMSO stock solution (which was maintained throughout these experiments to minimise any variation in aggregation state induced by changes in concentration), any resulting chloride efflux was detected using a chloride ion selective electrode (ISE). All of these molecules but compound 1 (Section S17) mediated a modest amount of chloride efflux when added at 10 mol% w.r.t. lipid (Fig. 4b and c)which is surprising given the negative charge of the SSA anion. […] We were unable to observe significant transport activity when these compounds were added as a stock solution dissolved in water (5 mM). […]
Section S3: Biological methods
Preparation of vesicles: A stock solution of 1-palmitoyl-2-oleoyl-sn-glycero-3-phosphocholine (POPC) was prepared by dissolving 1 g of POPC in 35 mL de-acidified CHCl3. The CHCl3 was passed through a column of basic alumina before use. This solution was stored at -20 °C when […]
A lipid film of POPC was prepared by adding 1–4 mL of the above stock solution into a pre-weighed falcon tube and gently removing the CHCl3 under a stream of nitrogen. The lipid film was dried under vacuum overnight. The lipid film was re-hydrated by vortexing with the desired internal buffer solution, then subjected to 9 freeze-thaw cycles. Typically, the lipids were not thawed on the last cycle and were stored at -20 °C for use at a later date.
The lipid was thawed to room temperature and allowed to stand for 30 mins, then extruded 27 times through a 200 nm polycarbonate membrane. The resulting unilamellar vesicles were dialysed against the desired external buffer solution for a minimum of 2 hours.
Transport experiments protocol: The vesicles prepared as described above were diluted to a known volume of 5 mL using the desired external buffer solution. This solution was further diluted into individual 5 mL samples for testing at a final lipid concentration of 1 mM. The transporter was added to the vesicles from a stock solution in DMSO (5 mM) after 30 s in order to initiate the transport and any resulting chloride efflux was monitored using a chloride selective electrode (ISE – Cole Parmer). At the end of the experiment, the vesicles were lysed by the addition of 40 µL Triton-X 100 (10 wt% in H2O). The final electrode reading was taken 2 mins later and used to calibrate 100% chloride efflux. Each experiment was performed 3 […]
Section S17: Ion transport studies
Cl-/NO3- antiport Hill plots – pH 7.2
Internal buffer: 500 mM NaCl buffered to pH 7.2 with 5 mM sodium phosphate salts.
External buffer: 500 mM NaNO3 buffered to pH 7.2 with 5 mM sodium phosphate salts.
Figure S134 - Transport data for the Cl-/NO3- antiport Hill plot experiment with compound 1.
Full Hill analysis was not performed due to the low observed activity of this compound.
(1 picture or pasted object on this page, not shown here)

[4] = 15 h, read-out: MIC 1199B, total molecular concentration, after 900 min
[5] = read-out: MIC (mM) S. aureus 1199B, lowest concentration with no visible growth

SMILES | MIC (S. aureus 1199B; [4]) | MIC (S. aureus 1199B; [5]) | MIC (E. Faecalis NCTC 775) | Ka / Kass (M-1), guest Cl- [1] | Ka / Kass (M-1), guest H2PO4- [1] | MIC (mM) S. aureus 1199B (S. aureus 1199B; listed as 3) | MIC 1199B (S. aureus 1199B; after 900 min, listed as 3) | dH (nm), DLS intensity distribution peak maxima ([2]; listed as 3) | EC50 Cl-/NO3- antiport [3] | n (Hill coefficient) ([3]; listed as 3) | MIC (mM) S. aureus 1199B (S. aureus 1199B; listed as 5) | MIC 1199B (S. aureus 1199B; after 900 min, listed as 5) | dH (nm), DLS intensity distribution peak maxima ([2]; listed as 5) | MIC (mM) E. Faecalis NCTC 775 (E. Faecalis NCTC 775; lowest concentration with no visible growth, listed as 5) | n (Hill coefficient) ([3]; listed as 5) | dH (nm), DLS intensity distribution peak maxima [2] | n (Hill coefficient) [3]
O=C(O)CNC(=O)Nc1ccc(C(F)(F)F)cc1 [SSA 1] | > 2.78 mM | > 2.78 mM | > 2.78 mM | 4.33 M⁻¹ | 12.59 M⁻¹ |  |  |  |  |  |  |  |  |  |  |  | 
CC(C)CC(NC(=O)Nc1ccc(C(F)(F)F)cc1)C(=O)O (stereo not shown) [SSA 3] |  |  | > 2.78 mM | No evidence of host: guest complex formation detected | No evidence of host: guest complex formation detected | 0.087 mM (≈ 27.7 µg/mL) | 87 µM (≈ 27.7 µg/mL) | 265.65 (± 19.29) nm and 266 nm | > 15 mol% w.r.t. lipid | 1.4 |  |  |  |  |  |  | 
CC(C)CC(NC(=O)Nc1ccc(C(F)(F)F)cc1)C(=O)O (stereo not shown) [SSA 5] |  |  |  | No evidence of host: guest complex formation detected |  |  |  |  | > 15 mol% w.r.t. lipid |  | 2.780 mM (≈ 885 µg/mL) | 2780 µM (≈ 885 µg/mL) | 174.05 (± 13.00) nm and 174 nm | 2.780 mM (≈ 885 µg/mL) | 1.7 |  | 
O=C(Nc1ccc(C(F)(F)F)cc1)N[C@@H](Cc1ccccc1)C(=O)O [SSA 7] | 0.174 mM (≈ 61.3 µg/mL) | 0.174 mM (≈ 61.3 µg/mL) | > 2.78 mM |  | 30.27 M⁻¹ and 30 M⁻¹ |  |  |  | > 15 mol% w.r.t. lipid |  |  |  |  |  |  | 166.62 (± 19.14) nm and 167 nm | 1.4
O=C(Nc1ccc(C(F)(F)F)cc1)N[C@H](Cc1ccccc1)C(=O)O [SSA 9] | 0.174 mM (≈ 61.3 µg/mL) | 0.174 mM (≈ 61.3 µg/mL) | 2.78 mM (≈ 979 µg/mL) | No evidence of host: guest complex formation detected |  |  |  |  | > 15 mol% w.r.t. lipid |  |  |  |  |  |  | 180.99 (± 53.12) nm and 181 nm | 1.3
